Experimental data: patent US9394570B2, “Marker for colon cancer and method for detecting colon cancer” (The Chinese University of Hong Kong, priority 2010, dated 2016)
Entries after “also recorded” stand apart in the source; their conditions may differ.

Tested on: TBX5 expression in methylated colon cancer cell lines
Assay: Demethylation with 5-Aza, TBX5 mRNA expression by RT-PCR
Assay type: cell-based, human
Conditions: 2 μM 5-Aza for 5 days; 4 methylated cell lines with silenced or downregulated TBX5
Protocol: Total RNA was extracted from cell pellets and tissues using TRIzol Reagent according to the manufacturer's instruction (Molecular Research Center, Inc., Cincinnati, Ohio). cDNA was synthesized from 2 μg total RNA using Transcriptor Reverse Transcriptase (Roche Applied Sciences, Indianapolis, Ind.). For semi-quantitative RT-PCR, a 151 bp fragment of the TBX5 gene was amplified for 36 cycles using AmpliTaq Gold DNA polymerase (Applied Biosystems, Foster City, Calif.) as previously reported (Yu et al, Gastro), with β-actin as internal control. The primer sequences of TBX5 are: forward 5′-[…]-3′ (SEQ ID NO:2) and reverse 5′-[…]-3′ (SEQ ID NO:3). Real-time PCR was performed using SYBR Green master mixture on HT7900 system according to the manufactures' instructions (Applied Biosystems).
Cells were seeded at a density of 1×10^6 cells/mL. After 24 hours, cells were treated with 2 μM of the DNA demethylating agent 5-Aza (Sigma-Aldrich, St Louis, Mo.) for 5 days. 5-Aza was replenished every day. Controlled cells were treated with an equivalent concentration of vehicle (DMSO). Cells were then harvested for DNA and RNA extractions.

Compound: Nc1ncn([C@H]2C[C@H](O)[C@@H](CO)O2)c(=O)n1 [5-Aza, 5-Aza-2′-deoxycytidine]
- TBX5 mRNA expression after demethylation treatment: restoration of TBX5 expression in all cell lines examined; also recorded: restored
